In brackets after ≈: the same amount, converted by molar mass. Like-named read-outs stand apart in the source and are kept apart here.
Tests used:
Fusarium asiaticum = assay: microbe, parasite or virus in culture; assay type: cell-based; details: Fusarium asiaticum, read-out: Median Effective Concentration (EC50) for Growth Inhibition
wheat scab [1] = assay type: in vivo; details: Carbendazim 40 g a.i. per mu
Fusarium graminearum = assay: microbe, parasite or virus in culture; assay type: cell-based; details: Fusarium graminearum, read-out: Median Effective Concentration (EC50) for Growth Inhibition
leaf blight = tested on: leaf blight; parameters: species or system wheat; details: in vivo
wheat scab [2] = assay type: in vivo; details: Carbendazim 40 g a.i. per mu, control agent
[3] = parameters: species or system wheat; details: in vivo
rust = tested on: rust; parameters: species or system wheat; details: in vivo
wheat scab [4] = assay type: in vivo; details: Carbendazim 50 g a.i.
wheat scab [5] = assay type: in vivo; details: 80 g of 50% of Carbendazim Wettable Powder

COC(=O)Nc1nc2ccccc2[nH]1 [Carbendazim, carbendazim]
EC50 (Fusarium asiaticum): 0.45 µg/mL (≈ 2.35 µM) | Disease Index Prevention Effect % Head Blight (wheat scab [1]): 38.60% | EC50 (Fusarium graminearum): 0.45 µg/mL (≈ 2.35 µM) | Disease Index Prevention Effect % Leaf Blight (leaf blight): 48.50% | Disease Index Prevention Effect % Actual Prevention Effect (wheat scab [2]): 67.5% | Thousand Kernel Weight [3]: 41.60 g | Disease Index Prevention Effect % Rust (rust): 61.20% | Disease Index Prevention Effect % Head Blight (wheat scab [4]): 49.04% | Disease Index Prevention Effect % Head Blight (wheat scab [5]): 64.6%
